Results from patent US20230190695A1, “TRIBUTYRIN SUPPLEMENTATION PROVIDES BENEFITS FOR MENTAL WELLNESS, IMMUNE HEALTH AND FAT METABOLISM” (PHARMAVITE LLC, priority 2021, published 2023).

Experiments:
C57BL/6J mice [1] = experiment: Fecal corticosterone after forced swim test; assay type: in vivo; settings: male mice; 200 mg/kg/d; vs stressed vehicle control
Method: (§1) A study was conducted to evaluate tributyrin on stress and mood-related behaviors in female and male C57BL/6J mice. The animals were given immediate ad libitum access to water and standard rodent chow and were acclimated to the facility for 7 days. On study day -3, fat and muscle content was measured using nuclear magnetic resonance spectroscopy (NMR: MiniSpec NMR, Bruker LF50 Body Composition Analyzer). On study day 0, the animals were weighed, blood and fecal samples (1-2 pellets/animal) were collected, and the animals were randomized into their specific treatment group. Daily oral gavage of 4 distinct groups commenced as follows: • Treatment 1: daily PBS vehicle + no acute stress before behavioral measures • Treatment 2: daily PBS vehicle + acute stress before behavioral measures • Treatment 3: daily low-dose tributyrin (60 mg/kg/d) + acute stress before behavioral measures • Treatment 4: daily high-dose tributyrin (200 mg/kg/d) + acute stress before behavioral measures
After 7 weeks of intervention, blood and fecal samples were collected on study day 49, and fecal collection was repeated on study days 50 and 52. On study day 52, animals assigned to the acute stress groups were acutely restrained for two hours while unstressed animals were housed singly for 140 minutes in fresh cages. […] Serum cytokine levels were evaluated in terminal serum. […]

C57BL/6J mice [2] = experiment: Body weight and body composition by NMR; assay type: in vivo; settings: for final fat as a percentage of baseline: all mice, vs combined unstressed untreated control
Method: as §1
(§2) After 7 weeks of intervention, blood and fecal samples were collected on study day 49, and fecal collection was repeated on study days 50 and 52. On study day 52, animals assigned to the acute stress groups were acutely restrained for two hours while unstressed animals were housed singly for 140 minutes in fresh cages. […] All animals were then tested in the forced swim test (FST). A retro-orbital blood sample was collected within 15 to 30 minutes after the FST, and fecal pellets were collected (for corticosterone measurements). On study day 53, the animals were weighed, and body composition by NMR was performed a second time. The study was terminated on study day 56, blood was collected and necropsies were performed. Serum cytokine levels were evaluated in terminal serum.

C57BL/6J mice [3] = experiment: Fecal metabolite analysis (GC, UHPLC-HRMS); assay type: in vivo
Method: as §1, §2
Gut microbiota metabolizes ingested food and supplements in the colon thereby producing various metabolites, which have an impact on several host biological processes. These metabolites generated in the colon can be measured in the feces. A panel of metabolites were measured in feces collected from experimental mice 8 weeks post-treatment. Fecal SCFA were measured by Gas Chromatography (GC) and tryptophan metabolites were measured using Ultra High Performance Liquid Chromatography High Resolution Mass Spectrometry (UHPLC-HRMS). Comparisons were made between stressed untreated mice and tributyrin treated stressed mice.

C57BL/6J mice [4] = experiment: Forced swim test (FST) after acute restraint stress; assay type: in vivo; settings: for time immobile in the FST: combined female + male, study day 52; for immobility in the FST: vs sex-matched untreated stressed control
Method: as §1, §2
Forced Swim Test (FST) is a test centered on a rodent’s response to unescapable stress. Results of this test have been interpreted as a measure of susceptibility to negative mood. It is commonly used to measure the effectiveness of antidepressants. Forced swim tests were performed on study day 52 for each cohort of mice.

[5] = test system: combined microbiota of 10 healthy adult human donors; experiment: Colonic simulation, in vitro gut simulation model: microbial composition
Method: The impact of two doses of tributyrin on gut microbiota composition and microbial metabolites was studied in an in vitro gut simulation model using combined microbiota of 10 healthy adult human donors (5 males, 5 females, 30-60 years old, BMI<30). The retention times and pH ranges were optimized in order to obtain results that are representative for a full GIT simulation. A stabilization period was followed by a two-week control period and three weeks of treatment, where 59% of 300 mg/day or 59% of 1000 mg/day was administered daily (based on release profile described above). Samples were collected at the end of control period and treatment period. Both doses were performed in biological triplicate to account for biological variability. […] Higher ratio of Bacteroidetes:Firmicutes is associated with lean phenotype. Tributyrin treatment increases this ratio as illustrated in FIG. 4 and therefore may provide metabolic health benefit. • At species level, importantly, Akkermansia muciniphila and Faecalibacterium prausnitzii were enriched in tributyrin-treated compartments. • Akkermansia muciniphila is an acetate and propionate-producing, mucin-degrading bacteria. Its presence in the gut is associated with health benefits. An inverse relationship- between colonization of Akkermansia muciniphila and inflammatory conditions or obesity have been shown. […] Both Parabacteroides distasonis and Parabacteroides goldsteinii were stimulated in the proximal colon and distal colon for both low and high doses of tributyrin.

[6] = test system: combined microbiota of 10 healthy adult human donors; experiment: Colonic simulation, in vitro gut simulation model: butyrate and microbial metabolites; set-up: Indole-3-acetic acid / Indole-3-aldehyde / Indole-3-ethanol / Tryptophan / 5-Hydroxyindoleacetic acid / Tryptamine: unit not given here; settings: for 1-Acetyl-3-indolecarboxyaldehyde / 5-Hydroxyindoleacetic acid / Indole / Indole-3-acetic acid / Indole-3-acrylic acid / Melatonin / Serotonin / Skatole / Tryptamine / Tryptophan / Indole-3-ethanol / Indole-3-aldehyde / Indole-3-propionic acid: Treatment; for average increase of butyrate as compared to the control period / average increase of butyrate: highest dose (59% of 1000 mg/day); for average increase of butyrate: vs control period
Method: The impact of two doses of tributyrin on gut microbiota composition and microbial metabolites was studied in an in vitro gut simulation model using combined microbiota of 10 healthy adult human donors (5 males, 5 females, 30-60 years old, BMI<30). The retention times and pH ranges were optimized in order to obtain results that are representative for a full GIT simulation. A stabilization period was followed by a two-week control period and three weeks of treatment, where 59% of 300 mg/day or 59% of 1000 mg/day was administered daily (based on release profile described above). Samples were collected at the end of control period and treatment period. Both doses were performed in biological triplicate to account for biological variability.

C57BL/6J mice [7] = experiment: Cytokine concentrations in terminal serum; assay type: in vivo; settings: male mice
Method: as §1, §2

[8] = test system: Caco-2/THP1 (colonic cells/macrophages) co-culture; experiment: Caco-2/THP1 co-culture immunomodulation model; assay type: cell-based
Excerpt: An in vitro Caco-2/THP1 (colonic cells/macrophages) co-culture model was used to assess the effect of microbial metabolites on proinflammatory or ant-inflammatory cytokines and chemokines which serve as markers for immunomodulation.

[9] = low dose (60 mg/kg/d), 8 weeks post-treatment
[10] = proximal colon and distal colon, both low and high doses
[11] = Distal Colon, High Dose (59% of 1000 mg/day)
[12] = Distal Colon, Low Dose (59% of 300 mg/day)
[13] = Proximal Colon, High Dose (59% of 1000 mg/day)
[14] = Proximal Colon, Low Dose (59% of 300 mg/day)
[15] = 60 mg/kg/d, vs stressed vehicle control
[16] = DC-Low (distal colon, low dose)
[17] = PC-High (proximal colon, high dose)
[18] = PC-Low (proximal colon, low dose)

## CCCC(=O)OCC(COC(=O)CCC)OC(=O)CCC [tributyrin]
C57BL/6J mice [1]
  fecal corticosterone levels after FST: statistical reduction
C57BL/6J mice [2]; 60 mg/kg/d
  final fat as a percentage of baseline: statistically reduced
C57BL/6J mice [2]; 200 mg/kg/d
  final fat as a percentage of baseline: statistically reduced
C57BL/6J mice [2]; treated mice vs untreated control
  Lean:Fat ratio: significantly increased
C57BL/6J mice [3]; high dose (200 mg/kg/d), 8 weeks post-treatment
  tryptophan in feces: 142.8 ± 53.4 ng/mg
C57BL/6J mice [3]; [9]
  Indole-3-acetic acid in feces: 1.56 ± 1.17 ng/mg
  tryptophan in feces: 154.9 ± 98.7 ng/mg
C57BL/6J mice [3]; treated mice vs untreated stressed controls
  fecal SCFA levels: No differences
C57BL/6J mice [4]; 60 mg/kg/d oral gavage, vs stressed untreated control
  time immobile in the FST: reductions in time immobile in the FST were statistically significant
C57BL/6J mice [4]; 60 mg/kg, females
  immobility in the FST: reduced immobility
C57BL/6J mice [4]; 200 mg/kg/d oral gavage, vs stressed untreated control and vs unstressed control
  time immobile in the FST: reductions in time immobile in the FST were statistically significant
C57BL/6J mice [4]; 200 mg/kg, males
  immobility in the FST: reduced immobility
[5]; PC and DC, low and high dose
  Faecalibacterium prausnitzii abundance: enriched
[5]; PC and DC, low- and high-dose
  Akkermansia muciniphila abundance: enriched
[5]; both low and high dose
  gut microbial diversity (Simpson Diversity Index): increase
[5]; distal colon, low and high dose vs control (FIG. 4)
  ratio of Bacteroidetes:Firmicutes: increases
[5]; proximal colon
  Parabacteroides merdae ATCC 43184 abundance: specific stimulation
  Tannerellaceae levels: increased
[5]; [10]
  Parabacteroides distasonis abundance: stimulated
  Parabacteroides goldsteinii abundance: stimulated
[6]; [11]
  1-Acetyl-3-indolecarboxyaldehyde: < LOD
  5-Hydroxyindoleacetic acid: 0.001
  Indole: < LOD
  Indole-3-acetic acid: 0.644
  Indole-3-acrylic acid: < LOD
  Melatonin: < LOD
  Serotonin: < LOD
  Skatole: < LOD
  Tryptamine: 0.175
  Tryptophan: 0.095
[6]; [12]
  1-Acetyl-3-indolecarboxyaldehyde: < LOD
  5-Hydroxyindoleacetic acid: 0.001
  Indole: < LOD
  Indole-3-acrylic acid: < LOD
  Indole-3-ethanol: 0.284
  Melatonin: < LOD
  Serotonin: < LOD
  Skatole: < LOD
  Tryptamine: 0.205
  Tryptophan: 0.116
[6]; [13]
  1-Acetyl-3-indolecarboxyaldehyde: < LOD
  5-Hydroxyindoleacetic acid: 0.008
  Indole: < LOD
  Indole-3-acetic acid: 0.916
  Indole-3-acrylic acid: < LOD
  Indole-3-aldehyde: 0.058
  Indole-3-propionic acid: 0.01
  Melatonin: < LOD
  Serotonin: < LOD
  Skatole: < LOD
  Tryptamine: 0.105
[6]; [14]
  1-Acetyl-3-indolecarboxyaldehyde: < LOD
  5-Hydroxyindoleacetic acid: 0.01
  Indole: < LOD
  Indole-3-acrylic acid: < LOD
  Indole-3-aldehyde: 0.06
  Indole-3-ethanol: 0.266
  Indole-3-propionic acid: 0.008
  Melatonin: < LOD
  Serotonin: < LOD
  Skatole: < LOD
  Tryptamine: 0.118
[6]; both proximal colon and distal colon, on initiation of treatment
  butyrate levels: significantly enhanced
[6]; distal colon
  average increase of butyrate as compared to the control period: 78.8%
  average increase of butyrate: 7.7 mM
[6]; proximal colon
  average increase of butyrate as compared to the control period: 91.9%
  average increase of butyrate: 7.4 mM
C57BL/6J mice [7]; 60 mg/kg/d, vs stressed mice
  IL-2 in terminal serum: reduced significantly
  IL-4 in terminal serum: reduced significantly
C57BL/6J mice [7]; [15]
  IFNγ in terminal serum: significantly reduced
  MIP-1a in terminal serum: significantly reduced
C57BL/6J mice [7]; 200 mg/kg/d, vs stressed mice
  IL-4 in terminal serum: reduced significantly
C57BL/6J mice [7]; 200 mg/kg/d, vs stressed vehicle control
  MIP-1a in terminal serum: significantly reduced
[8]; [16]
  IL6, treatment suspensions normalized to blank control suspensions: 1.13
  IL10, treatment suspensions normalized to blank control suspensions: 1.03
  IL-1B, treatment suspensions normalized to blank control suspensions: 1.07
  MCP1, treatment suspensions normalized to blank control suspensions: 1.05
[8]; [17]
  IL6, treatment suspensions normalized to blank control suspensions: 1.31
  IL8, treatment suspensions normalized to blank control suspensions: 1.03
  IL-1B, treatment suspensions normalized to blank control suspensions: 1.08
  MCP1, treatment suspensions normalized to blank control suspensions: 0.97
[8]; [18]
  IL6, treatment suspensions normalized to blank control suspensions: 1.01
  IL8, treatment suspensions normalized to blank control suspensions: 1.3
  IL10, treatment suspensions normalized to blank control suspensions: 1.06
  IL-1B, treatment suspensions normalized to blank control suspensions: 1.08
  TNFa, treatment suspensions normalized to blank control suspensions: 1.06
